This note sets out measurements from patent publication US20030207877A1, “Pyridoquinoxaline antivirals” (priority 2001, published 2003).

SMILES strings stand for the structures. pIC50: −log10 of the molar value. Values joined by “and” are separate entries in the source; they are usually repeats but may differ in a detail not shown here. Equal entries are not always repeated.

The target in one data set is T1, HCMV polymerase (Human cytomegalovirus, UniProt P08546).
T1 construct: made in house; host or cells: SF-9 insect cells infected with recombinant baculovirus
T1 sequence (P08546 whole entry): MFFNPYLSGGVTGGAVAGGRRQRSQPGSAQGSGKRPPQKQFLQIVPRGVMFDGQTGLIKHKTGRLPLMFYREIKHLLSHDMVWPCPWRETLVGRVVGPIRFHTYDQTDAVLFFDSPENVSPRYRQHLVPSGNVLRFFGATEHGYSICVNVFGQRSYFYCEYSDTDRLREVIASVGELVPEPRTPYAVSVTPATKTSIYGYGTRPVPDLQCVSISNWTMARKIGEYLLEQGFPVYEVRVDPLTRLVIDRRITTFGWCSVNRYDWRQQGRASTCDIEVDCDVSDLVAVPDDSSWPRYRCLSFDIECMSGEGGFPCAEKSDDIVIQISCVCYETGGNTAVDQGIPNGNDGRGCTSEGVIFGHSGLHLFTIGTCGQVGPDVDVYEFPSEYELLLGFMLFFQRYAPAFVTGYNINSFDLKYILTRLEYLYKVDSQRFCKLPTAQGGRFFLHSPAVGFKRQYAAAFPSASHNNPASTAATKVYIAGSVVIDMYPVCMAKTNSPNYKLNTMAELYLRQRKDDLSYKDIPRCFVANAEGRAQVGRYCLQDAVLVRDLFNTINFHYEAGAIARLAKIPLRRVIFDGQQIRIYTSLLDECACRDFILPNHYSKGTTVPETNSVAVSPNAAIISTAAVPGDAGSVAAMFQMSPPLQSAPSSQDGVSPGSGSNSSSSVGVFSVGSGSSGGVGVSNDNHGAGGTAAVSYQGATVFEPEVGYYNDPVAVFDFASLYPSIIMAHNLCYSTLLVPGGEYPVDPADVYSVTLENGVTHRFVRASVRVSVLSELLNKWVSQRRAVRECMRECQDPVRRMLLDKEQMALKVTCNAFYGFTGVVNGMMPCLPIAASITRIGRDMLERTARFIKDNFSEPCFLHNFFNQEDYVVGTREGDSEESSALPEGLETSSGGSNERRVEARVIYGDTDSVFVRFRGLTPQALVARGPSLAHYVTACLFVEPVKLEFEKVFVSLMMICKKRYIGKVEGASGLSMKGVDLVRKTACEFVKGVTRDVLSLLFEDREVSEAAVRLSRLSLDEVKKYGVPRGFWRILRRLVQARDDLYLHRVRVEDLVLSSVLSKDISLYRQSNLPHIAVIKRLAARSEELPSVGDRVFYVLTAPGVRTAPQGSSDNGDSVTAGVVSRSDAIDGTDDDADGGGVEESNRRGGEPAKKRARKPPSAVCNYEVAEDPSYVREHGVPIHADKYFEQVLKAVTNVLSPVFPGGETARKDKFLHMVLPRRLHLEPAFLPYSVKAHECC
Put plainly: HCMV polymerase assay (scintillation proximity assay), original and modified version. It is filed as biochemical. Conditions: SPA; several values per example = repeat determinations, assay version not given; read-out: CMV Polymerase IC50. A general note: SPA uses beads or plates that emit light when radiolabelled molecules are held near them.

The next data set has as its target T2, Alpha Polymerase (Homo sapiens, UniProt P09884).
T2 sequence (P09884 1-1462): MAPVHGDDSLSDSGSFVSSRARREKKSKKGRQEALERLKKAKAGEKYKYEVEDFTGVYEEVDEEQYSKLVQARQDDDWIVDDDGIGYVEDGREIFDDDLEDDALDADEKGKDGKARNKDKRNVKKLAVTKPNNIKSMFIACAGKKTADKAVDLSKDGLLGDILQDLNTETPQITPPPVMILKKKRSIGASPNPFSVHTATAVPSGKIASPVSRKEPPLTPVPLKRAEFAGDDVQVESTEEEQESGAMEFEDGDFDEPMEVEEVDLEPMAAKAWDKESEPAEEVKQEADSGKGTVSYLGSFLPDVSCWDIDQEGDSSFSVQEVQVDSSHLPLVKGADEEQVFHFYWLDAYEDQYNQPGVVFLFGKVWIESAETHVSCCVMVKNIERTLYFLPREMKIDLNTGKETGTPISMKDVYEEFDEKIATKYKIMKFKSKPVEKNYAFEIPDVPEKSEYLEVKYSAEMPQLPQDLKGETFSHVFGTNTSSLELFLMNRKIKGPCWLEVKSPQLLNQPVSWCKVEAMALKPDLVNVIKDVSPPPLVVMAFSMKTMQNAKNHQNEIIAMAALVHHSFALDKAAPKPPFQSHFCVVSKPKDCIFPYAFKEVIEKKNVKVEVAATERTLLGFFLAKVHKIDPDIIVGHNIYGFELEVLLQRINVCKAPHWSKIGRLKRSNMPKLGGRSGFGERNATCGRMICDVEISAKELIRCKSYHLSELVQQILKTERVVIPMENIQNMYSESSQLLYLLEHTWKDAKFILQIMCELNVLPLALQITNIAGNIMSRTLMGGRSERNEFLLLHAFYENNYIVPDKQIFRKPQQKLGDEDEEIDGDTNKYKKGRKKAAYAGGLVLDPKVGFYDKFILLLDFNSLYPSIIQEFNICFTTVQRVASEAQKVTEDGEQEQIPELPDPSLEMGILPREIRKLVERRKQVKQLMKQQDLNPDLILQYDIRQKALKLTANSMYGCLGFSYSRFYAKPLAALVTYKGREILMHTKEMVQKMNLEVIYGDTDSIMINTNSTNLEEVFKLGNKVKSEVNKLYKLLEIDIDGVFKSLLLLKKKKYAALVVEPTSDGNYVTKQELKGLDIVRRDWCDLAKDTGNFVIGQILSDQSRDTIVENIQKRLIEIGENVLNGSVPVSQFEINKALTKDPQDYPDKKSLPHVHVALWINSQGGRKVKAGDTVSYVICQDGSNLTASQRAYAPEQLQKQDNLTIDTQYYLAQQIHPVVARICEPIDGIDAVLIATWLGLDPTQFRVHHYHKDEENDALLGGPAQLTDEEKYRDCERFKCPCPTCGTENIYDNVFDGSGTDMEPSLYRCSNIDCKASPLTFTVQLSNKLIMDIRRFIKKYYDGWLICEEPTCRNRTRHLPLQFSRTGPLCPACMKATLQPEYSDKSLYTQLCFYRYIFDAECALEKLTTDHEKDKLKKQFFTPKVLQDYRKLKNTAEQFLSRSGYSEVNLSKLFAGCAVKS
As to the kind of experiment: Alpha polymerase inhibition (selectivity). Format: biochemical.

In the case of `Cc1ccc(C(O)CN(C)Cc2cc3c4c(c2)c(=O)c(C(=O)NCc2ccc(Cl)cc2)cn4CC(=O)N3C)o1` (racemic) [Example 6, rac N-(4-chlorobenzyl)-9-{([2-hydroxy-2-(5-methyl-2-furyl)ethyl](methyl)amino)methyl}-1-methyl-2,7-dioxo-2,3-dihydro-1H,7H-pyrido[1,2,3-de]quinoxaline-6-carboxamide], the melting point lay in the range of 159 to 161 °C. The negative logarithm of the IC50 (pIC50) on HCMV polymerase is 6.92 and 7.05. On Alpha Polymerase, the pIC50 is < 4.70.
`CN(Cc1cc2c3c(c1)c(=O)c(C(=O)NCc1ccc(Cl)cc1)cn3CC(=O)N2C)CC(O)c1ccc(O)cc1` (racemic) [Example 2, rac N-(4-chlorobenzyl)-9-{([2-hydroxy-2-(4-hydroxyphenyl)ethyl](methyl)amino)methyl}-1-methyl-2,7-dioxo-2,3-dihydro-1H,7H-pyrido[1,2,3-de]quinoxaline-6-carboxamide] had a melting point of 145 to 148 °C. At HCMV polymerase, the negative logarithm of the IC50 (pIC50) was 7.15 and 7.03. Besides, the pIC50 on Alpha Polymerase was < 5.30.

As a reminder, the pIC50 is the negative decadic logarithm of the IC50, by convention in mol/L. For orientation: melting point means the temperature of the solid-liquid transition.
